In general, MIC refers to the smallest concentration in the dilution series that meets the test's criterion for growth inhibition. For orientation: MIC90 means an inhibitory concentration at the 90% level, which refers to growth in some studies and to a panel of isolates in others. Usually MIC50 stands for the lowest concentration that inhibits either 50% of growth or 50% of the strains tested, depending on the study.

In brackets after ≈: the same amount, converted by molar mass. Several values for one entry are separate records, joined by “and”; a condition that tells them apart may be missing. Equal values may be shown once.

Experiment [1] has as its system Propionibacterium acne. In words: MIC in vitro, Propionibacterium acne strains (Table 1). The format is cell-based, Propionibacterium acnes. From the text: (§1) In particular, bacterial strains which should not be affected by topical administration of the anti-acne candidate compound are Staphylococcus aureus, Staphylococcus epidermidis, and Streptococcus pyogenes strains.
(§2) The tests have been carried out in comparison with antibiotic GE 2270 and four representative compounds (B, C, D and E) described in U.S. Pat. No. 5,599,791.

Experiment [2] has as its system Staphylococcus aureus. As to the kind of experiment: MIC in vitro, Staphylococcus aureus (Table 1). The format is cell-based.
Description: as §1, §2

For experiment [3], the system named is Staphylococcus epidermidis. As to the kind of experiment: MIC in vitro, Staphylococcus epidermidis (Table 1). The format is cell-based. As to conditions: ATCC 12228, MH.
Description: as §1, §2

For experiment [4], the system named is Streptococcus pyogenes. In words: MIC in vitro, Streptococcus pyogenes (Table 1). It is filed as cell-based. To be noted: C 203, MH.
Description: as §1, §2

Experiment [5] relates to clinical isolates of P. acnes displaying antibiotic-sensitive phenotypes. In words: MIC against clinical isolates of P. acnes displaying antibiotic-sensitive phenotypes (Table 3). It is filed as cell-based, Propionibacterium acnes. As to conditions: Cutibacterium acnes.
Description: (§3) MIC50 and MIC90 means minimum inhibitory concentration capable of inhibiting 50% and 90%, respectively, of the strains tested.
Experiment [6] deals with clinical isolates of P. acnes displaying antibiotic-resistant phenotypes. In words: MIC against clinical isolates of P. acnes displaying antibiotic-resistant phenotypes (Table 2). To be noted: for Cumul. %: resistant isolates. The format is cell-based, Propionibacterium acnes.
Description: as §3

Regarding GE 2270, the MIC in experiment [1] (ATCC 6919, Wilkins Chalgren (WC)) was less than 0.125 µg/mL; in experiment [1] (ATCC 6922, WC) it was less than 0.125 µg/mL; in experiment [1] (ATCC 25746, WC), less than 0.125 µg/mL; in experiment [1] (clinical isolate, WC (one table line per isolate)), <0.125 µg/mL and 0.125 µg/mL; in experiment [1] (clinical isolate, medium not given), less than 0.125 µg/mL; in experiment [2] (MRSA, MH), less than 0.125 µg/mL. Moreover, the MIC was 0.25 µg/mL in experiment [2] (Smith ATCC 19636, MH + 30% bovine serum); 0.06 µg/mL in experiment [2] (Smith ATCC 19636, Mueller Hinton (MH)); less than 0.125 µg/mL in experiment [3]; 0.25 µg/mL in experiment [4].

As for `CC[C@H]1OC(=O)[C@H](C)[C@@H](O[C@H]2C[C@@](C)(OC)[C@@H](O)[C@H](C)O2)[C@H](C)[C@@H](O[C@@H]2O[C@H](C)C[C@H](N(C)C)[C@H]2O)[C@](C)(O)C[C@@H](C)C(=O)[C@H](C)[C@@H](O)[C@]1(C)O` [Erythromycin], the MIC90 was 0.125 µg/mL (≈ 0.17 µM) in experiment [5] and 2050 µg/mL (≈ 2790 µM) in experiment [6] (Cutibacterium acnes). This compound displayed an MIC50 in experiment [6] (Cutibacterium acnes) of 1020 µg/mL (≈ 1400 µM). For the same compound, the results for the “N° isolates” value in experiment [6] (resistant isolates with MIC 512 μg/ml), in experiment [6] (resistant isolates with MIC 1024 μg/ml) and in experiment [6] (resistant isolates with MIC 2048 μg/ml) were 1, 11 and 3, respectively. For the same compound, the Cumul. % in experiment [6] (cumulative at MIC 512 μg/ml) is listed as 7%; in experiment [6] (cumulative at MIC 1024 μg/ml) it was 80%; in experiment [6] (cumulative at MIC 2048 μg/ml), 100%.

Values taken from patent US7655676B2, “Use of amide derivative of GE 2270 factor A3 for the treatment of acne” (Naicons S.C.A.R.L., priority 2002, dated 2010).
